Measurements from US8609648B2, “Hepatitis C virus inhibitors” (Enanta Pharmaceuticals, Inc., priority 2009, dated 2013).

Test system: HCV 1b genotype replicon
Assay: HCV replicon assay (qRT-PCR or luciferase)
Type: cell-based
Details: Hepatitis C virus, read-out: Genotype-1b replicon EC50 Range
Source text: HCV replicon cell lines (kindly provided by R. Bartenschlager) isolated from colonies as described by Lohman et. al. (Lohman et al. (1999) Science 285: 110-113, expressly incorporated by reference in its entirety) and used for all experiments. The HCV replicon has the nucleic acid sequence set forth in EMBL Accession No.: AJ242651, the coding sequence of which is from nucleotides 1801 to 8406.
The coding sequence of the published HCV replicon was synthesized and subsequently assembled in a modified plasmid pBR322 (Promega, Madison, Wis.) using standard molecular biology techniques. One replicon cell line (“SGR 11-7”) stably expresses HCV replicon RNA which consists of (i) the HCV 5′UTR fused to the first 12 amino acids of the capsid protein, (ii) the neomycin phosphotransferase gene (neo), (iii) the IRES from encephalomyocarditis virus (EMCV), and (iv) HCV NS2 to NS5B genes and the HCV 3′UTR. Another replicon cell line (“Huh-luc/neo-ET”) described by Vrolijk et. al. (Vrolijk et. al. (2003) Journal of Virological Methods 110:201-209, expressly incorporated by reference in its entirety) stably expresses HCV replicon RNA which consists of (i) the HCV 5′UTR fused to the first 12 amino acids of the capsid protein, (ii) the firefly luciferase reporter gene, (iii) the ubiquitin gene, (iv) the neomycin phosphotransferase gene (neo), (v) the IRES from encephalomyocarditis virus (EMCV), and (vi) HCV NS3 to NS5B genes that harbor cell culture adaptive mutations (E1202G, T1280I, K1846T) and the HCV 3′UTR.
These cell lines were maintained at 37° C., 5% CO2, 100% relative humidity in DMEM (Cat#11965-084, Invitrogen), with 10% fetal calf serum (“FCS”, Invitrogen), 1% non-essential amino acids (Invitrogen), 1% of Glutamax (Invitrogen), 1% of 100× penicillin/streptomycin (Cat#15140-122, Invitrogen) and Geneticin (Cat#10131-027, Invitrogen) at 0.75 mg/ml or 0.5 mg/ml for 11-7 and Huh-luc/neo-ET cells, respectively.
EC50 values of single agent compounds and combinations were determined by HCV RNA detection using quantitative RT-PCR, according to the manufacturer's instructions, with a TAQMAN® One-Step RT-PCR Master Mix Reagents Kit (Cat# AB 4309169, Applied Biosystems) on an ABI Model 7500 thermocycler. The TaqMan primers used for detecting and quantifying HCV RNA were obtained from Integrated DNA Technologies. HCV RNA was normalized to GAPDH RNA levels in drug-treated cells, which is detected and quantified using the Human GAPDH Endogenous Control Mix (Applied Biosystems, AB 4310884E). Total cellular RNA is purified from 96-well plates using the RNAqueous 96 kit (Ambion, Cat# AM1812). Chemical agent cytotoxicity is evaluated using an MTS assay according to the manufacturer's directions (Promega).
Since clinical drug resistance often develops in viral infections following single agent therapies, there is a need to assess the additive, antagonistic, or synergistic properties of combination therapies. We used the HCV replicon system to assess the potential use of the compound of the present invention or in combination therapies with Interferon alpha, cyclosporine analogs and inhibitors targeting other HCV proteins. The acute effects of a single or combinations of drugs are studied in the “Huh-luc/neo-ET” replicon with each chemical agent titrated in an X or Y direction in a 6 point two-fold dilution curve centered around the EC50 of each drug. Briefly, replicon cells are seeded at 7,000 cells per well in 90 ul DMEM (without phenol red, Invitrogen Cat.#31053-036) per well with 10% FCS, 1% non-essential amino acids, 1% of Glutamax and 1% of 100× penicillin/streptomycin and incubated overnight at 37° C., 5% CO2, 100% relative humidity. […]

Structure (SMILES) | EC50
COC(=O)N[C@H]1CCC[C@@H]2CC[C@@H](c3ncc(-c4ccc(-c5ccc(-c6cnc([C@@H]7CCCN7C(=O)[C@@H](NC(=O)OC)C(C)C)[nH]6)cc5)cc4)[nH]3)N2C1=O [Example 376] | < 1 nM
COC(=O)N[C@H](C(=O)N1CCC[C@H]1c1ncc(-c2ccc(-c3ccc(-c4cnc([C@@H]5CC[C@@H]6CCCCC(=O)N65)[nH]4)cc3)cc2)[nH]1)C(C)C [Example 375] | < 1 nM
COC(=O)N[C@H]1CC[C@@H]2SC[C@@H](c3ncc(-c4ccc(-c5ccc(-c6cnc([C@@H]7CCCN7C(=O)[C@@H](NC(=O)OC)C(C)C)[nH]6)cc5)cc4)[nH]3)N2C1=O [Example 368] | < 1 nM
COC(=O)N[C@H](C(=O)N1CCC[C@H]1c1ncc(-c2ccc(-c3ccc(-c4cnc([C@@H]5CS[C@H]6CCCC(=O)N65)[nH]4)cc3)cc2)[nH]1)C(C)C [Example 373] | < 1 nM
COC(=O)N[C@H]1CC[C@H]2CC[C@@H](c3ncc(-c4ccc(-c5ccc(-c6cnc([C@@H]7CCCN7C(=O)[C@@H](NC(=O)OC)C(C)C)[nH]6)cc5)cc4)[nH]3)N2C1=O [Example 369] | < 1 nM
COC(=O)NC1CC[C@@H]2CC[C@@H](c3ncc(-c4ccc(-c5ccc(-c6cnc([C@@H]7CCCN7C(=O)[C@@H](NC(=O)OC)C(C)C)[nH]6)cc5)cc4)[nH]3)N2C1=O (mixture of isomers) [Example 371] | < 1 nM
COC(=O)N[C@H](C(=O)N1CCC[C@H]1c1ncc(-c2ccc(-c3ccc(-c4cnc([C@@H]5CC[C@H]6CCCCC(=O)N65)[nH]4)cc3)cc2)[nH]1)C(C)C [Example 374] | < 1 nM
COC(=O)N[C@H](C(=O)N1CCC[C@H]1c1ncc(-c2ccc(-c3ccc(-c4cnc([C@@H]5CS[C@@H]6CCCC(=O)N65)[nH]4)cc3)cc2)[nH]1)C(C)C [Example 372] | < 1 nM
COC(=O)N[C@H](C(=O)N1CCC[C@H]1c1ncc(-c2ccc(-c3ccc(-c4cnc([C@@H]5CC[C@@H]6CC[C@@H](NC(=O)OC)C(=O)N65)[nH]4)cc3)cc2)[nH]1)C(C)C [Example 370] | < 1 nM
